# “And” between values parts separate entries of the source, which are not always exact repeats. Identical values can stand only once. “Also recorded” adds a separate entry of the source.
# What was measured:
# [1] = cited from earlier work
# C2C12 myoblasts = experiment: MM-induced calcium release in C2C12 cells (Fluo-4); type: cell-based, mouse; details: for Calcium release in C2C12 myoblasts: light for 500 ms, MM 1 8 μM
# From the text: FIGS. 36A-36D—MMs cause intracellular calcium waves in C2C12 myoblasts, a) MM 1 (unidirectional, ~3 MHz) structure showing rotor and stator. b) Rotation cycle of a MM. c) Confocal microscope images of C2C12 myoblasts with MM and labeled with Fluo-4. Stimulated areas are indicated by the red arrows immediately before stimulation and 10 s after stimulation. Scale bar=30 μm. d) Average normalized fluorescence intensity trace of stimulated C2C12 cells myoblasts treated with either DMSO (n=6) or MM 1 (n=7) and stimulated with 400-nm laser light for 500 ms. Laser stimulation is shown by the cyan line.
# Fluo-4 is an intracellular calcium dye that fluoresces green when binding to calcium and is commonly used to observe intracellular calcium spikes in many cell types.
# C2C12 cells will undergo differentiation from myoblasts to multinucleated myotubes when allowed to grow to confluence. This process occurs over the course of several days and can be sped up by replacing normal growth media with low serum differentiation media (Jang et al., 2022). The responsiveness of C2C12 cells to MM stimulation changes was tracked as they went through the process of growth and differentiation (FIG. 39). When plated on the first day, the cells are in low confluency, and show clear morphology of myoblasts. The cells reach around 100% confluency on day 4 (FIG. 39A), at which point they begin to differentiate to form the myotubes. They show lowest uptake of Fluo-4 and nearly no responses. After about 9 days of growth in regular growth media, myotubes begin to form, which have a fibrous, striated and multinucleated appearance, and the uptake of Fluo-4 could be observed again.
# HEK293 cells = experiment: MM-induced intracellular calcium responses (Fluo-4) after 400 nm stimulation; type: cell-based
# Experimental: To investigate cellular responses to the actuation of MM, live-cell calcium tracking were employed. HEK293 cells were treated with the fluorescent intracellular calcium indicator Fluo-4 and loaded with MM. The structures of the MM employed in this study are shown in FIG. 1B, and the calcium responses of cells treated with fast-rotating MM 1 are shown in FIG. 1C. […] In the presence of the vehicle only, no calcium responses were evoked by the same laser treatment (FIG. 2).
# Cell Culture and Preparation of Cells for Microscopy: HEK293 cells were chosen as the principal model system due to their prevalence in electrophysiological interrogation. […] HEK293 cells, HeLa cells, and N2A cells were cultured in DMEM (10% FBS, 1% penicillin/streptomycin) and passaged at <90% confluence. To grow cardiomyocytes, a dissColved rat heart (TransnetYX©) was triturated, centrifuged, and resuspended in cardiomyocyte growth medium (TransnetYX© catalog #SKU-NBCG) and seeded at a concentration of 60,000 cells cm^−2. Growth substrates were pre-treated with 1% gelatin solution for 3 h, then washed with PBS. Cardiomyocytes were allowed to grow for 4 days, after which the growth medium was exchanged for cardiomyocyte maintenance medium (TransnetYX© catalog #SKU-NBCM). Experiments were conducted from day 4 to day 6.
# Imaging was conducted in imaging extracellular buffer (iECB; 119 mM NaCl, 5 mM KCl, 10 mM HEPES, 2 mM CaCl2, 1 mM MgCl2 (pH 7.2); 320 mOsm). Imaging in calcium-free medium was conducted in phosphate-buffered saline. Cells were prepared for imaging by seeding a 35 mm Ibidi imaging dish with ~50,000 cells in 1 mL of DMEM, and grown at 37 °C, 5% CO2 for 2 days. Prior to imaging, cells were incubated with dyes and/or molecules resuspended in complete growth medium at the appropriate concentration (MM 1 (8 μM), MM 2 (8 μM), MM 3 (24 μM), MM 4 (8 μM), Fluo-4 (2 μM)). MM and Fluo-4 were loaded into cells for 45 min. Cells treated with thapsigargin were exposed for 30 min after MM and Fluo-4 loading. Cells treated with organelle-targeting dyes were exposed for 5 min after MM loading. Ruthenium red and Gd^3+ were included in the imaging medium during stimulation and were associated with cells for 10 min prior to imaging. At the end of incubation, this medium was replaced with the iECB. Unless otherwise specified, all experiments were replicated in triplicate.
# In Vitro Imaging and Stimulation: Cells were loaded in a Nikon A1-Rsi confocal system mounted on a widefield Ti-E fluorescence microscope. Imaging was conducted using a 60× water immersion objective (NA of 1.27, 0.17 mm working distance). Green fluorophores (Fluo-4, MitoTracker Green) were excited using a 488 nm photodiode laser. Red fluorophores (ER-Tracker-Red, PI) were excited using a 561 nm photodiode laser. Deep red fluorophores (cellMask plasma membrane stain) were excited using a 630 nm photodiode laser. Laser stimulation for in vitro experiments was performed with a 400 nm photodiode laser (Coherent OBIS™ LX SF) operating in a fluorescence-recovery-after-photobleaching (FRAP) experiment mode, delivering up to 6.4×10^2 W cm^−2 at sample level. Unless otherwise specified, all experiments were conducted using a stimulus irradiance of 3.2×10^2 W cm^−2. Cardiomyocyte experiments were conducted using a stimulus irradiance of 5.1×10^2 W cm^−2. Power was calibrated using a Thor Labs S130C laser power meter. Stimulation was targeted to a circular area of diameter 5 μm in a 250 ms pulse, during which the laser rasters across the entire region of interest. […] Fluo-4 fluorescence was collected for 30 s before and 2 min after stimulation. Images were collected using a Galvano scanner operating at 0.94 fps. In selected experiments, images were also collected using a resonant scanner operating at 7.7 fps.
# Data Analysis—In Vitro: Data were analyzed using custom-written Python scripts. Fluorescence traces of calcium indicator Fluo-4 from cells were imported and processed via the Pandas library. […]
# [2] = UV-Vis absorbance of motors in DMSO; type: physicochemical
# From the text: The UV-Vis spectrum of each motor was also acquired in DMSO (FIG. 37D) to ensure that the difference in absorbance at 400 nm was not the cause of larger or smaller responses.
# [3] = 8 μM MM, 400 nm, 3.2×10^2 W cm^−2, 250 ms
SMILES,Rotation rate [1],"Calcium release with scavenger combination (C2C12 myoblasts; MM 1 + light, with thiourea-containing scavenger combination (1× and 0.2×))","Responsiveness to MM stimulation during differentiation (C2C12 myoblasts; MM 1, day 1 to day 3)","Responsiveness to MM stimulation during differentiation (C2C12 myoblasts; MM 1, day 4 to day 8)","Responsiveness to MM stimulation during differentiation (C2C12 myoblasts; MM 1, day 9)","Calcium release at lower laser power (C2C12 myoblasts; MM 1, lower laser powers)",Calcium release in C2C12 myoblasts (C2C12 myoblasts),Intracellular calcium response (Fluo-4) (HEK293 cells; [3]),"Decay kinetics of calcium response (HEK293 cells; 8 μM, 400 nm light, 250 ms)","Time to peak of calcium transient after stimulation (HEK293 cells; 8 μM, 400 nm light, 250 ms)","Repeatability of calcium responses (HEK293 cells; 3.2×10^2 W cm^−2, 250 ms, multiple stimulations)","Light power dependence of calcium response (HEK293 cells; 250 ms pulse, 5 μm diameter)","Propagation of calcium response to adjacent cells (HEK293 cells; MM 1, 400 nm light)",Signal amplitude compared with other MM (HEK293 cells; MM 1 vs MM 2),Absorbance at 400 nm [2],"Calcium release at 3 times higher concentration (C2C12 myoblasts; MM 3, 3×)","Intracellular calcium response (Fluo-4) (HEK293 cells; MM 3 at 24 μM, 6.4×10^2 W cm^−2)"
CC1Cc2ccc3ccccc3c2C1=C1c2ccccc2Sc2cc(NCCN(C)C)ccc21 (stereo not drawn) [MM 1],~ 3 MHz and 3 MHz,without changing the magnitude of calcium release,slight decrease of the responsivity from day 1 to day 3,lose their responsiveness to MM stimulation,increase in responsiveness to MM stimulation,lower calcium release,robust intracellular calcium release; also recorded: calcium transients several times larger in magnitude than MM 2,increased Fluo-4 fluorescence in the targeted cell; also recorded: elicited rapid increases in intracellular calcium; also recorded: elicited the strongest signaling responses in vitro,decayed over the next minute,10 to 20 s,repeatable,higher response amplitude at higher irradiance,Calcium responses were observed to propagate to adjacent cells,reached a higher amplitude than those elicited by MM 2,nearly identical absorbances at 400 nm,,
CC1Cc2cc(NCCN(C)C)c3ccccc3c2C1=C1c2ccccc2-c2ccccc21 (stereo not drawn) [MM 3],,,,,,,did not induce any calcium release,,,,,,,,much smaller absorbance,no measurable increase in calcium release,elicited no change in calcium activity upon irradiation; also recorded: did not elicit any noticeable responses in vitro
CN(C)CCNc1ccc2c(c1)Sc1ccccc1C2=C1CCc2ccc3ccccc3c21 [MM 4],3 MHz,,,,,,,elicited only small changes in calcium concentration; also recorded: elicited inconsistent and weak responses,,,,,,,,,

# Reference: patent publication US20260373497A1, “MOLECULAR MACHINES STIMULATE INTERCELLULAR CALCIUM WAVES AND CAUSE MUSCLE CONTRACTION” (William Marsh Rice University, priority 2022, published 2026)
